In assay [1] the target is PERK (Homo sapiens (Human), UniProt Q9NZJ5). The experiment in a line: PERK cellular assay (TR-FRET, HEK293-EGFP-eIF2α cells, tunicamycin-induced ER stress). The format is cell-based. The note with it: tunicamycin 2 hours, read-out: Cellular IC50 (μM) (EIF2a). In a few lines: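 Cells pre-incubated with inhibitor 30 min at 37 °C, then ER stress induced with […] tunicamycin for 2 h. TR-FRET read on lysates; ratio normalized to DMSO control as percent inhibition over a 10-point, 3-fold dilution series; IC50 from 4-parameter logistic fit.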
Chain of PERK (Q9NZJ5 30-1116): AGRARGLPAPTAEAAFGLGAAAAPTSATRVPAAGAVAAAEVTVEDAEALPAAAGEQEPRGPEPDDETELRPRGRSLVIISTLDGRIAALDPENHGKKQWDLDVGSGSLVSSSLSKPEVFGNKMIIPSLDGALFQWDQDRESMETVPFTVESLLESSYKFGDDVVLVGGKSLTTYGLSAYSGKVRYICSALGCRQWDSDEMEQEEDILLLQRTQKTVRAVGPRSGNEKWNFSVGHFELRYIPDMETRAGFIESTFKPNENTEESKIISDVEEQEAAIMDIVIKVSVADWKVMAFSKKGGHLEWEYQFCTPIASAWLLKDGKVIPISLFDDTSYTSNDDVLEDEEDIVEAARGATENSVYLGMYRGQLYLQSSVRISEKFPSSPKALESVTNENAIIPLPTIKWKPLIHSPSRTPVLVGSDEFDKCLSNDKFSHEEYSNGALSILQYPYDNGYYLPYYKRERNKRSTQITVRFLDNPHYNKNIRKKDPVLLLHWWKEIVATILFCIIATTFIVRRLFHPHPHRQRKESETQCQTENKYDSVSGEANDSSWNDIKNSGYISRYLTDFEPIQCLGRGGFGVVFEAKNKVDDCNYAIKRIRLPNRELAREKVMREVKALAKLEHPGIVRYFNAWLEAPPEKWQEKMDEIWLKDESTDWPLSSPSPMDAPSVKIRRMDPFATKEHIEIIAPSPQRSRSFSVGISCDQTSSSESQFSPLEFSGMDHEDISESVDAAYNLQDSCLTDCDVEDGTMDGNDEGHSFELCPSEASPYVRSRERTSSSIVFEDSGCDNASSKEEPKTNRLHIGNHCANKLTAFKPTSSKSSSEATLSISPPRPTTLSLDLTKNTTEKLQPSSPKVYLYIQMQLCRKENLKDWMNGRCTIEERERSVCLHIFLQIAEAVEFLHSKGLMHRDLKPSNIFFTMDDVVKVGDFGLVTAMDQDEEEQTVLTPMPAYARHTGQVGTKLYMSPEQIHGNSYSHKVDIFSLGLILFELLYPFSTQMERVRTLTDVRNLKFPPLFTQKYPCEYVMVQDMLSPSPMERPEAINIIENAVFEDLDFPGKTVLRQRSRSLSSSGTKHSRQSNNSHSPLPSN
A general note: TR-FRET usually uses a lanthanide donor and a delayed reading to cut background.

The target in assay [2] is EIF2AK3 (PERK) catalytic domain (amino acids 536-1116) (Homo sapiens (Human), UniProt Q9NZJ5). Briefly: PERK in vitro activity assay (isolated), TR-FRET kinase assay. The settings on record: isolated PERK enzyme, 1.5 μM ATP, GFP-eIF2a substrate; read-out: Biochemical IC50. In short, it runs like this:
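Human PERK catalytic domain (aa 536-1116) with 100-200 nM GFP-eIF2a in 50 mM HEPES pH 7.5, 10 mM MgCl2, 1.0 mM EGTA, 0.01% Brij-35; enzyme-started reaction run 45 min at room temperature. Stopped with 10 mM EDTA, 2 nM Tb-anti-phospho-eIF2a added for 90 min; IC50 from TR-FRET ratio by 4-parameter logistic fit.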

Bounds are passed on as bounds.

Chain of EIF2AK3 (PERK) catalytic domain (amino acids 536-1116) (Q9NZJ5 536-1116): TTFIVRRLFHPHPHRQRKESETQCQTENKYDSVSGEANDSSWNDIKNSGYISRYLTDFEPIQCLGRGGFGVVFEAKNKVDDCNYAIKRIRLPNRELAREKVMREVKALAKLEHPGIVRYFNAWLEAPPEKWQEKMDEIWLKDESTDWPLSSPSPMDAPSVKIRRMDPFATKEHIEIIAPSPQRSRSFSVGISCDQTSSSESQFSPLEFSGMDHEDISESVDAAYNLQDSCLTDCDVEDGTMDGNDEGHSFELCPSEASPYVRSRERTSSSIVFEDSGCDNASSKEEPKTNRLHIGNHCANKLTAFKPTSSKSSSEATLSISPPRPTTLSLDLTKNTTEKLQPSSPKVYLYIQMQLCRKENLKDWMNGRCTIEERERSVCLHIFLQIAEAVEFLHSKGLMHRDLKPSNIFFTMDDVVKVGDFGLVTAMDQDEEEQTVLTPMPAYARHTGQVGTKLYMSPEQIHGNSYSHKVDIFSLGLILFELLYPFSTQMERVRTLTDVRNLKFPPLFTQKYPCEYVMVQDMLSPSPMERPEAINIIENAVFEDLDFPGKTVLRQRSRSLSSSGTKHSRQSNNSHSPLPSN

For `CNc1ncc(-c2ccc(NC(=O)C(O)c3cc(F)cc(F)c3)cc2C)cc1C(=O)NC(C)C` (stereo not drawn) [Example 175, 5-(4-(2-(3,5-difluorophenyl)-2-hydroxyacetamido)-2-methylphenyl)-N-isopropyl-2-(methylamino) nicotinamide], the IC50 in assay [1] was above 5 µM; in assay [2] it was 1000 to 2000 nM.

Consider `Cc1cc(NC(=O)C(O)c2cc(F)cc(F)c2)ccc1-c1cnc(C)c(C(=O)NC(C)C)c1` (stereo not drawn) [Example 176, 5-(4-(2-(3,5-difluorophenyl)-2-hydroxyacetamido)-2-methylphenyl)-N-isopropyl-2-methylnicotinamide], for which the figures for the IC50 in assay [1] and in assay [2] were 0.501 to 1 µM and 51 to 100 nM, respectively.

On to `Cc1cc(NC(=O)C(O)c2cc(F)cc(F)c2)ccc1-c1cnc(C)c(C(=O)NC(C)C)c1` (stereo not drawn) [Example 177, 5-(4-(2-(3,5-difluorophenyl)-2-hydroxyacetamido)-2-methylphenyl)-N-isopropyl-2-methylnicotinamide], for which the concentration for half-maximal inhibition (IC50) is 0.251 to 0.5 µM in assay [1] and 26 to 50 nM in assay [2].

In the case of `Cc1cc(NC(=O)C(O)c2cc(F)cc(F)c2)ccc1-c1cncc(C(=O)NC(C)C)c1` (stereo not drawn) [Example 178, 5-(4-(2-(3,5-difluorophenyl)-2-hydroxyacetamido)-2-methylphenyl)-N-isopropylnicotinamide], the IC50 in assay [1] was in the range of 0.101 to 0.25 µM; in assay [2], 26 to 50 nM.

For `Cc1cc(NC(=O)C(O)c2cc(F)cc(F)c2)ccc1-c1cncc(C(=O)NC(C)C)c1` (stereo not drawn) [Example 179, 5-(4-(2-(3,5-difluorophenyl)-2-hydroxyacetamido)-2-methylphenyl)-N-isopropylnicotinamide], the figures for the 50% inhibitory concentration (IC50) in assay [1] and in assay [2] were 0.501 to 1 µM and 101 to 250 nM, respectively.

On to `Cc1ccc(-c2ccc(NC(=O)C(O)c3cc(F)cc(F)c3)cc2C)cn1` (stereo not drawn) [Example 180, 2-(3,5-difluorophenyl)-2-hydroxy-N-(3-methyl-4-(6-methylpyridin-3-yl)phenyl)acetamide], for which the figures for the IC50 in assay [1] and in assay [2] were above 5 µM and 1000 to 2000 nM, respectively.

Turning to `Cc1ccc(-c2ccc(NC(=O)C(O)c3cc(F)cc(F)c3)cc2C)cn1` (stereo not drawn) [Example 181, 2-(3,5-difluorophenyl)-2-hydroxy-N-(3-methyl-4-(6-methylpyridin-3-yl)phenyl)acetamide], the IC50 was above 5 µM in assay [1] and above 5000 nM in assay [2].

For `Cc1cc(N(O)C(=O)C(O)c2cc(F)cc(F)c2)ccc1-c1cnc(N)c(C(=O)NC(C)C)c1` (stereo not drawn) [Example 182, 2-amino-5-(4-(2-(3,5-difluorophenyl)-N,2-dihydroxyacetamido)-2-methylphenyl)-N-isopropylnicotinamide], the figures for the IC50 in assay [1] and in assay [2] were 2 to 3 µM and 251 to 500 nM, respectively.

As to `Cc1cc(NC(=O)C(F)(F)c2ccccc2)ccc1-c1cnc(N)c(C(=O)NC(C)C)c1` [Example 183, 2-amino-5-(4-(2,2-difluoro-2-phenylacetamido)-2-methylphenyl)-N-isopropylnicotinamide], the IC50 in assay [1] was 2 to 3 µM; in assay [2] it was 101 to 250 nM.

As for `Cc1cc(NC(=O)C(=O)c2cc(F)cc(F)c2)ccc1-c1cnc(N)c(C(=O)NC(C)C)c1` [Example 184, 2-amino-5-(4-(2-(3,5-difluorophenyl)-2-oxoacetamido)-2-methylphenyl)-N-isopropyl nicotinamide], the IC50 in assay [1] is 0.101 to 0.25 µM; in assay [2], 251 to 500 nM.

Consider `Cc1cccc(CC(=O)Nc2ccc(-c3cnc(N)c(C(=O)NC(C)C)c3)c(C)c2)n1` [Example 185, 2-amino-N-isopropyl-5-(2-methyl-4-(2-(6-methylpyridin-2-yl)acetamido)phenyl)nicotinamide], for which the figures for the IC50 in assay [1] and in assay [2] were 0.251 to 0.5 µM and 1 to 25 nM, respectively.

As to `Cc1cc(NC(=O)Cc2cc(F)cc(F)c2)ccc1-c1cnc(N)c(C(=O)NC(C)C)c1` [Example 186, 2-amino-5-(4-(2-(3,5-difluorophenyl)acetamido)-2-methylphenyl)-N-isopropylnicotinamide], the 50% inhibitory concentration (IC50) in assay [1] was in the range of 0.101 to 0.25 µM; in assay [2], 51 to 100 nM.

On to `Cc1cc(NC(=O)Cc2ccccc2)ccc1-c1cnc(N)c(C(=O)NC(C)C)c1` [Example 187, 2-amino-N-isopropyl-5-(2-methyl-4-(2-phenylacetamido)phenyl)nicotinamide], for which the IC50 in assay [1] lay within 0.501 to 1 µM; in assay [2] it was 51 to 100 nM.

Take `Cc1cc(NC(=O)CCc2ccccc2)ccc1-c1cnc(N)c(C(=O)NC(C)C)c1` [Example 188, 2-amino-N-isopropyl-5-(2-methyl-4-(3-phenylpropanamido)phenyl) nicotinamide]: the results for the IC50 in assay [1] and in assay [2] were 2 to 3 µM and 251 to 500 nM, respectively.

On to `Cc1cc(NC(=O)Cc2ccccc2F)ccc1-c1cnc(N)c(C(=O)NC(C)C)c1` [Example 189, 2-amino-5-(4-(2-(2-fluorophenyl)acetamido)-2-methylphenyl)-N-isopropylnicotinamide], for which the values for the IC50 in assay [1] and in assay [2] were 0.501 to 1 µM and 101 to 250 nM, respectively.

As for `Cc1cc(NC(=O)Cc2cccc(F)c2)ccc1-c1cnc(N)c(C(=O)NC(C)C)c1` [Example 190, 2-amino-5-(4-(2-(3-fluorophenyl)acetamido)-2-methylphenyl)-N-isopropylnicotinamide], the concentration for half-maximal inhibition (IC50) in assay [1] lay in the range of 0.501 to 1 µM; in assay [2] it was 51 to 100 nM.

As to `Cc1cc(NC(=O)Cc2ccc(F)cc2)ccc1-c1cnc(N)c(C(=O)NC(C)C)c1` [Example 191, 2-amino-5-(4-(2-(4-fluorophenyl)acetamido)-2-methylphenyl)-N-isopropylnicotinamide], the values for the 50% inhibitory concentration (IC50) in assay [1] and in assay [2] were 1 to 2 µM and 51 to 100 nM, respectively.

Consider `COc1ccccc1CC(=O)Nc1ccc(-c2cnc(N)c(C(=O)NC(C)C)c2)c(C)c1` [Example 192, 2-amino-N-isopropyl-5-(4-(2-(2-methoxyphenyl)acetamido)-2-methylphenyl) nicotinamide], for which the IC50 in assay [1] fell in the range of 2 to 3 µM; in assay [2] it was 101 to 250 nM.

For the compound `COc1cccc(CC(=O)Nc2ccc(-c3cnc(N)c(C(=O)NC(C)C)c3)c(C)c2)c1` [Example 193, 2-amino-N-isopropyl-5-(4-(2-(3-methoxyphenyl)acetamido)-2-methylphenyl) nicotinamide], the figures for the IC50 in assay [1] and in assay [2] were 0.501 to 1 µM and 51 to 100 nM, respectively.

For `COc1ccc(CC(=O)Nc2ccc(-c3cnc(N)c(C(=O)NC(C)C)c3)c(C)c2)cc1` [Example 194, 2-amino-N-isopropyl-5-(4-(2-(4-methoxyphenyl)acetamido)-2-methylphenyl) nicotinamide], the IC50 in assay [1] lay in the range of 2 to 3 µM; in assay [2], 501 to 1000 nM.

On to `Cc1ccc(CC(=O)Nc2ccc(-c3cnc(N)c(C(=O)NC(C)C)c3)c(C)c2)cc1` [Example 197, 2-amino-N-isopropyl-5-(2-methyl-4-(2-(p-tolyl)acetamido)phenyl)nicotinamide], for which the figures for the IC50 in assay [1] and in assay [2] were 1 to 2 µM and 101 to 250 nM, respectively.

With `Cc1cc(NC(=O)Cc2ccccc2Cl)ccc1-c1cnc(N)c(C(=O)NC(C)C)c1` [Example 198, 2-amino-5-(4-(2-(2-chlorophenyl)acetamido)-2-methylphenyl)-N-isopropylnicotinamide], the IC50 in assay [1] was 0.501 to 1 µM; in assay [2], 26 to 50 nM.

Take `Cc1cc(NC(=O)Cc2cccc(Cl)c2)ccc1-c1cnc(N)c(C(=O)NC(C)C)c1` [Example 199, 2-amino-5-(4-(2-(3-chlorophenyl)acetamido)-2-methylphenyl)-N-isopropylnicotinamide]: the IC50 is 0.101 to 0.25 µM in assay [1] and 26 to 50 nM in assay [2].

On to `Cc1cc(NC(=O)Cc2ccc(Cl)cc2)ccc1-c1cnc(N)c(C(=O)NC(C)C)c1` [Example 200, 2-amino-5-(4-(2-(4-chlorophenyl)acetamido)-2-methylphenyl)-N-isopropylnicotinamide], for which the figures for the IC50 in assay [1] and in assay [2] were 0.501 to 1 µM and 501 to 1000 nM, respectively.

Regarding `Cc1cc(NC(=O)Cc2ccccc2C(F)(F)F)ccc1-c1cnc(N)c(C(=O)NC(C)C)c1` [Example 201, 2-amino-N-isopropyl-5-(2-methyl-4-(2-(2-(trifluoromethyl)phenyl)acetamido)phenyl)nicotinamide], the half-maximal inhibitory concentration (IC50) in assay [1] lay in the range of 0.501 to 1 µM; in assay [2], 51 to 100 nM.

Turning to `Cc1cc(NC(=O)Cc2cccc(C(F)(F)F)c2)ccc1-c1cnc(N)c(C(=O)NC(C)C)c1` [Example 202, 2-amino-N-isopropyl-5-(2-methyl-4-(2-(3-(trifluoromethyl)phenyl)acetamido)phenyl)nicotinamide], the IC50 was 0.101 to 0.25 µM in assay [1] and 51 to 100 nM in assay [2].

Take `Cc1cc(NC(=O)Cc2ccc(C(F)(F)F)cc2)ccc1-c1cnc(N)c(C(=O)NC(C)C)c1` [Example 203, 2-amino-N-isopropyl-5-(2-methyl-4-(2-(4-(trifluoromethyl)phenyl)acetamido)phenyl) nicotinamide]: the figures for the half-inhibitory concentration (IC50) in assay [1] and in assay [2] were 1 to 2 µM and 2000 to 3000 nM, respectively.

Take `CCc1cccc(CC(=O)Nc2ccc(-c3cnc(N)c(C(=O)NC(C)C)c3)c(C)c2)c1` [Example 205, 2-amino-5-(4-(2-(3-ethylphenyl)acetamido)-2-methylphenyl)-N-isopropylnicotinamide]: the 50% inhibitory concentration (IC50) in assay [1] fell in the range of 0.101 to 0.25 µM; in assay [2], 1 to 25 nM.

With `CCc1ccc(CC(=O)Nc2ccc(-c3cnc(N)c(C(=O)NC(C)C)c3)c(C)c2)cc1` [Example 206, 2-amino-5-(4-(2-(4-ethylphenyl)acetamido)-2-methylphenyl)-N-isopropylnicotinamide], the IC50 in assay [1] lay within 2 to 3 µM; in assay [2], 251 to 500 nM.

As for `Cc1cc(NC(=O)Cc2cccc3ccccc23)ccc1-c1cnc(N)c(C(=O)NC(C)C)c1` [Example 207, 2-amino-N-isopropyl-5-(2-methyl-4-(2-(naphthalen-1-yl)acetamido)phenyl)nicotinamide], the IC50 in assay [1] is 0.251 to 0.5 µM; in assay [2], 1 to 25 nM.

What is called IC50 is the point on the concentration scale where inhibition reaches its midpoint.

Values taken from patent US12473296B2, “Perk inhibiting compounds” (HiberCell, Inc., priority 2019, dated 2025).
